From paper PMC7531004, “Discovery of gramicidin A analogues with altered activities by multidimensional screening of a one-bead-one-compound library” (Nature Communications, 2020)
Where a SMILES comes first, the peptide text is derived from it. [ ]: non-standard residue; d: D form. The star is where a group is joined. NHCH2CH2OH = OCCN*; For = O=C*

Key:
[1] = H+/Na+ transport assay of bead-derived peptides (one-point); assay type: biochemical; design: key: relative activity; mean of two control wells = 1.00; conditions: bead-derived peptide solution, EYPC/EYPG LUVs;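 also: relative to parent gramicidin A activity set to 1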
In short: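 Values are normalized fluorescence, with Triton X-100 defining 100% and untreated LUVs 0%, and the two control wells averaging 1.00. Vesicles carried 1.0 mM pyranine and included egg yolk phosphatidylglycerol. Peptides were incubated with them 30 min at room temperature.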

[2] = system: P388 mouse leukemia cells; conditions: 92 h
In short: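 P388 cells at 1 × 10^4 cells/mL (final) were exposed to library peptides (stocks diluted 250-fold in RPMI1640/10% FBS) for 92 h at 37 °C, 5% CO2. Viable cells were counted by WST-1/1-methoxy PMS (4 h), absorbance 415 nm, and expressed as cell viability (%).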

[3] = system: Streptococcus pyogenes SSI-9; test: Antibacterial activity assay of bead-derived peptides (three concentrations); assay type: cell-based; design: key: +++: inhibition by the 640-fold diluted peptide solution; ++: inhibition by the 160-fold diluted solution; +: inhibition by the 40-fold diluted solution; -: no inhibition; conditions: S. pyogenes, bead-derived peptide solution, three concentrations
In short: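 Library peptide stock applied undiluted, 4-fold and 16-fold diluted in DMSO to S. pyogenes SSI-9 (2 × 10^5 CFU) in cation-adjusted Mueller Hinton broth with 5% laked horse blood. After 18 h at 37 °C, growth judged by visible cell precipitation.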

Compound | H+/Na+ transport activity normalized against the value of 1 (1.00) [1] | cell viability/% [2] | antibacterial activity [3]
CC(C)C[C@@H](NC(=O)[C@H](C)NC(=O)[C@H](NC(=O)[C@H](C)NC(=O)CNC(=O)[C@@H](NC=O)C(C)C)C(C)C)C(=O)N[C@H](C(=O)N[C@@H](C(=O)N[C@@H](Cc1c[nH]c2ccccc12)C(=O)N[C@@H](C(=O)N[C@@H](Cc1c[nH]c2ccccc12)C(=O)N[C@H](CC(C)C)C(=O)N[C@@H](Cc1c[nH]c2ccccc12)C(=O)N[C@@H](C(=O)N[C@@H](Cc1c[nH]c2ccccc12)C(=O)NCCO)[C@H](C)O)C(C)C)C(C)C)C(C)C [compound 7393] (For-VGA[dV]A[dL]V[dV]W[dV]W[dL]W[dT]W-NHCH2CH2OH) | 1.07 | 100.0% | -
CNC(=O)C[C@@H](NC(=O)[C@@H](NC(=O)[C@@H](CC(C)C)NC(=O)[C@H](C)NC(=O)[C@@H](CC(C)C)NC(=O)[C@H](C)NC(=O)CNC(=O)[C@@H](NC=O)C(C)C)C(C)C)C(=O)N[C@@H](Cc1c[nH]c2ccccc12)C(=O)N[C@@H](C(=O)N[C@@H](Cc1c[nH]c2ccccc12)C(=O)N[C@@H](C(=O)N[C@@H](Cc1c[nH]c2ccccc12)C(=O)N[C@H](CC(C)C)C(=O)N[C@@H](Cc1c[nH]c2ccccc12)C(=O)NCCO)C(C)C)C(C)C [compound 11228] (For-VGA[dL]A[dL]V[dD](NHMe)W[dV]W[dV]W[dL]W-NHCH2CH2OH) | 1.27 | 76.4% | -
CC(C)C[C@@H](NC(=O)[C@H](Cc1c[nH]c2ccccc12)NC(=O)[C@@H](CC(C)C)NC(=O)[C@H](Cc1c[nH]c2ccccc12)NC(=O)[C@@H](CC(C)C)NC(=O)[C@H](Cc1c[nH]c2ccccc12)NC(=O)[C@@H](CC(C)C)NC(=O)[C@@H](NC(=O)[C@H](NC(=O)[C@H](C)NC(=O)[C@H](NC(=O)[C@H](C)NC(=O)CNC(=O)[C@@H](NC=O)C(C)C)C(C)C)C(C)C)C(C)C)C(=O)N[C@@H](Cc1c[nH]c2ccccc12)C(=O)NCCO [compound 7864] (For-VGA[dV]A[dV]V[dL]W[dL]W[dL]W[dL]W-NHCH2CH2OH) | 1.01 | 10.8% | +
CC(C)C[C@@H](NC(=O)[C@H](C)NC(=O)[C@H](NC(=O)[C@H](C)NC(=O)CNC(=O)[C@@H](NC=O)C(C)C)C(C)C)C(=O)N[C@H](C(=O)N[C@@H](C(=O)N[C@@H](Cc1c[nH]c2ccccc12)C(=O)N[C@H](CC(C)C)C(=O)N[C@@H](Cc1c[nH]c2ccccc12)C(=O)N[C@@H](C(=O)N[C@@H](Cc1c[nH]c2ccccc12)C(=O)N[C@@H](C(=O)N[C@@H](Cc1c[nH]c2ccccc12)C(=O)NCCO)C(C)C)C(C)C)[C@H](C)O)C(C)C [compound 4126] (For-VGA[dV]A[dL]V[dT]W[dL]W[dV]W[dV]W-NHCH2CH2OH) | 1.06 | 100.0% | -
CNC(=O)C[C@@H](NC(=O)[C@@H](NC(=O)[C@H](NC(=O)[C@H](C)NC(=O)[C@@H](CC(C)C)NC(=O)[C@H](C)NC(=O)CNC(=O)[C@@H](NC=O)C(C)C)C(C)C)C(C)C)C(=O)N[C@@H](Cc1c[nH]c2ccccc12)C(=O)N[C@H](CC(C)C)C(=O)N[C@@H](Cc1c[nH]c2ccccc12)C(=O)N[C@@H](C(=O)N[C@@H](Cc1c[nH]c2ccccc12)C(=O)N[C@@H](C(=O)N[C@@H](Cc1c[nH]c2ccccc12)C(=O)NCCO)C(C)C)C(C)C [compound 2932] (For-VGA[dL]A[dV]V[dD](NHMe)W[dL]W[dV]W[dV]W-NHCH2CH2OH) | 1.27 | 87.5% | -
CC(C)[C@H](NC=O)C(=O)NCC(=O)N[C@@H](C)C(=O)N[C@@H](C(=O)N[C@@H](C)C(=O)N[C@@H](C(=O)N[C@H](C(=O)N[C@@H](C(=O)N[C@@H](Cc1c[nH]c2ccccc12)C(=O)N[C@@H](C(=O)N[C@@H](Cc1c[nH]c2ccccc12)C(=O)N[C@@H](C(=O)N[C@@H](Cc1c[nH]c2ccccc12)C(=O)N[C@@H](C(=O)N[C@@H](Cc1c[nH]c2ccccc12)C(=O)NCCO)C(C)C)C(C)C)[C@H](C)O)C(C)C)C(C)C)C(C)C)C(C)C [compound 5205] (For-VGA[dV]A[dV]V[dV]W[dT]W[dV]W[dV]W-NHCH2CH2OH) | 1.22 | 100.0% | -
CC(C)C[C@@H](NC(=O)[C@H](C)NC(=O)CNC(=O)[C@@H](NC=O)C(C)C)C(=O)N[C@@H](C)C(=O)N[C@@H](C(=O)N[C@H](C(=O)N[C@@H](C(=O)N[C@@H](Cc1c[nH]c2ccccc12)C(=O)N[C@@H](C(=O)N[C@@H](Cc1c[nH]c2ccccc12)C(=O)N[C@@H](C(=O)N[C@@H](Cc1c[nH]c2ccccc12)C(=O)N[C@H](CC(C)C)C(=O)N[C@@H](Cc1c[nH]c2ccccc12)C(=O)NCCO)C(C)C)C(C)C)[C@H](C)O)C(C)C)C(C)C [compound 809] (For-VGA[dL]A[dV]V[dT]W[dV]W[dV]W[dL]W-NHCH2CH2OH) | 1.13 | 100.0% | -
CNC(=O)C[C@@H](NC(=O)[C@H](Cc1c[nH]c2ccccc12)NC(=O)[C@@H](CC(C)C)NC(=O)[C@H](Cc1c[nH]c2ccccc12)NC(=O)[C@@H](CC(C)C)NC(=O)[C@H](Cc1c[nH]c2ccccc12)NC(=O)[C@H](NC(=O)[C@@H](NC(=O)[C@@H](CC(C)C)NC(=O)[C@H](C)NC(=O)[C@@H](CC(C)C)NC(=O)[C@H](C)NC(=O)CNC(=O)[C@@H](NC=O)C(C)C)C(C)C)C(C)C)C(=O)N[C@@H](Cc1c[nH]c2ccccc12)C(=O)NCCO [compound 11401] (For-VGA[dL]A[dL]V[dV]W[dL]W[dL]W[dD](NHMe)W-NHCH2CH2OH) | 1.09 | 56.6% | -
CNC(=O)C[C@@H](NC(=O)[C@@H](NC(=O)[C@@H](CC(C)C)NC(=O)[C@H](C)NC(=O)[C@H](NC(=O)[C@H](C)NC(=O)CNC(=O)[C@@H](NC=O)C(C)C)C(C)C)C(C)C)C(=O)N[C@@H](Cc1c[nH]c2ccccc12)C(=O)N[C@H](CC(C)C)C(=O)N[C@@H](Cc1c[nH]c2ccccc12)C(=O)N[C@H](CC(C)C)C(=O)N[C@@H](Cc1c[nH]c2ccccc12)C(=O)N[C@@H](C(=O)N[C@@H](Cc1c[nH]c2ccccc12)C(=O)NCCO)C(C)C [compound 9229] (For-VGA[dV]A[dL]V[dD](NHMe)W[dL]W[dL]W[dV]W-NHCH2CH2OH) | 1.15 | 100.0% | -
CC(C)C[C@@H](NC(=O)[C@H](Cc1c[nH]c2ccccc12)NC(=O)[C@H](NC(=O)[C@H](Cc1c[nH]c2ccccc12)NC(=O)[C@@H](CC(C)C)NC(=O)[C@@H](NC(=O)[C@H](NC(=O)[C@H](C)NC(=O)[C@H](NC(=O)[C@H](C)NC(=O)CNC(=O)[C@@H](NC=O)C(C)C)C(C)C)C(C)C)C(C)C)C(C)C)C(=O)N[C@@H](Cc1c[nH]c2ccccc12)C(=O)N[C@@H](C(=O)N[C@@H](Cc1c[nH]c2ccccc12)C(=O)NCCO)C(C)C [compound 12947] (For-VGA[dV]A[dV]V[dL]W[dV]W[dL]W[dV]W-NHCH2CH2OH) | 1.02 | 10.2% | +
CC(C)C[C@@H](NC(=O)[C@H](C)NC(=O)CNC(=O)[C@@H](NC=O)C(C)C)C(=O)N[C@@H](C)C(=O)N[C@H](CC(C)C)C(=O)N[C@H](C(=O)N[C@@H](C(=O)N[C@@H](Cc1c[nH]c2ccccc12)C(=O)N[C@@H](C(=O)N[C@@H](Cc1c[nH]c2ccccc12)C(=O)N[C@@H](C(=O)N[C@@H](Cc1c[nH]c2ccccc12)C(=O)N[C@H](CC(C)C)C(=O)N[C@@H](Cc1c[nH]c2ccccc12)C(=O)NCCO)[C@H](C)O)C(C)C)C(C)C)C(C)C [compound 8498] (For-VGA[dL]A[dL]V[dV]W[dV]W[dT]W[dL]W-NHCH2CH2OH) | 1.01 | 52.6% | -
CC(C)C[C@@H](NC(=O)[C@H](C)NC(=O)CNC(=O)[C@@H](NC=O)C(C)C)C(=O)N[C@@H](C)C(=O)N[C@H](CC(C)C)C(=O)N[C@H](C(=O)N[C@@H](C(=O)N[C@@H](Cc1c[nH]c2ccccc12)C(=O)N[C@@H](C(=O)N[C@@H](Cc1c[nH]c2ccccc12)C(=O)N[C@H](CC(C)C)C(=O)N[C@@H](Cc1c[nH]c2ccccc12)C(=O)N[C@H](CC(C)C)C(=O)N[C@@H](Cc1c[nH]c2ccccc12)C(=O)NCCO)[C@H](C)O)[C@H](C)O)C(C)C [compound 4421] (For-VGA[dL]A[dL]V[dT]W[dT]W[dL]W[dL]W-NHCH2CH2OH) | 1.12 | 100.0% | -
CC(C)C[C@@H](NC(=O)[C@H](C)NC(=O)[C@H](NC(=O)[C@H](C)NC(=O)CNC(=O)[C@@H](NC=O)C(C)C)C(C)C)C(=O)N[C@H](C(=O)N[C@H](CC(C)C)C(=O)N[C@@H](Cc1c[nH]c2ccccc12)C(=O)N[C@H](CC(C)C)C(=O)N[C@@H](Cc1c[nH]c2ccccc12)C(=O)N[C@@H](C(=O)N[C@@H](Cc1c[nH]c2ccccc12)C(=O)N[C@@H](C(=O)N[C@@H](Cc1c[nH]c2ccccc12)C(=O)NCCO)C(C)C)C(C)C)C(C)C [compound 11280] (For-VGA[dV]A[dL]V[dL]W[dL]W[dV]W[dV]W-NHCH2CH2OH) | 1.04 | 9.9% | -
